# Key:
# [1] = system: MCF-7 breast cancer cells; experiment: MTT cytotoxicity assay, MCF-7; format: cell-based, human; details: MCF-7 cells, 48 h incubation, 3 independent experiments, read-out: IC50 (mean ± SE)
# Method: Human brain tumor cells lines U87 MG (Cat.# HTB-14), U118 MG (Cat. # HTB-15), U138 (Cat # HTB-16), U373 MG (CAT. # HTB-17), and T98G (Cat. # CRL-1690) and breast cancer cell lines BT-20 (Cat # HTB-19), MDA-MB-231 (Cat # HTB-26), MDA-MB-361 (Cat # HTB-27), and MCF-7 (Cat # HTB-22) were obtained from American Type Culture Collection (ATCC, Rockville, Md.) and maintained as continuous cell lines in Dulbecco's modified Eagles's medium (U87, U118, U138, U373, T98 and BT-20) or Leibovitz's L-15 medium (MDA-MB-231 and MDA-MB-361). All media were supplemented with 10% fetal calf serum (FCS), 4 mM glutamine, 100 U/ml penicillin G and […] streptomycin sulfate. All tissue culture reagents were obtained from Life Technologies Inc. (GIBCO-BRL, Gaithersburg, Md.).
# The cytotoxicity of [VO(SO4)(Me2-Phen)2] against human cancer cell lines was analyzed using the MTT (3-[4,5-dimethylthiazol-2-yl]-2,5-diphenyl tetrazolium bromide) assay (Boehringer Mannheim Corp., Indianapolis, Ind.) as described previously (Narla et al., Clin Cancer Res., 4: 1405-1414, 1998). […] The absorbance at 540 nm (a reference wavelength of 690 nm was used) of the solution in each well was measured using a microplate reader (Labsystems). The percent survival and the IC50 values were calculated using Graphpad Prism v2.0 (Graphpad Software, Inc., San Diego, Calif.) as described previously (Narla et al., Supra). […]
# [2] = system: MDA-MB-231 breast cancer xenografts; experiment: SCID mouse xenograft model of human breast cancer; format: in vivo, SCID mice
# Method: FIGS. 1A-1B illustrate the in vivo antitumor activity of the vanadium compound, [VO(SO4)(Me2-Phen)2] against human glioblastoma and breast cancer in SCID mice. The effects of daily treatment with [VO(SO4)(Me2-Phen)2] (10 mg/kg/day) or 5% DMSO in PBS (given five days per week for four weeks beginning the day after inoculation) on tumor growth and progression of glioblastoma (FIG. 1A) and breast cancer (FIG. 1B) are illustrated. Comparisons between groups were done using the log-rank test.
# The animal protocols used in this study were approved by the Parker Hughes Institute Institutional Animal Care and Use Committee (IACUC). […]
# The right and left hind legs of the SCID mice were inoculated subcutaneously with 1×10^6 U87 human glioblastoma and 1×10^6 MDA-MB-231 beast cancer cells, respectively, in 0.1 mL PBS. […] Mice were monitored daily for health status as well as tumor growth and were sacrificed if they became moribund, developed tumors which impeded their ability to attain food or water, or at the ed of the six-week observation period. Tumors were measured using Vernier calipers three times per week. Tumor volumes were calculated according to the following formula, as described previously (Narla et al., Clin Cancer Res., 4: 1405-14, 1998; Friedman et al., Cancer Res., 55: 2853-2857, 1995): Tumor volume=(Width)^2(Length)/2. […]
structure (smiles),measurement,setting,value
"Cc1ccnc2c1ccc1c(C)ccnc12.Cc1ccnc2c1ccc1c(C)ccnc12.O=S(=O)([O-])[O-].[O]=[V+2] [[VO(SO4)(Me2-Phen)2], bis(4,7-dimethyl-1,10-phenanthroline) sulfatooxovanadium (IV)]",IC50,[1],2300 ± 400 nM
same,average size of tumors,"[2]; MDA-MB-231, 1.5 months after inoculation, 10 mg/kg i.p., vehicle control 641±98.7, P=0.004",286.9±41.5 mm^3
same,mice remaining alive and free of detectable tumors for >19 days,"[2]; follows the MDA-MB-231 sentence, 10 mg/kg/dose i.p., five days per week for four weeks",50%
